The target of this experiment is T1, VEGF165/NRP-1 (Rattus norvegicus, UniProt Q9QWJ9).
T1 construct: purchased R&D Systems
T1 sequence (Q9QWJ9 22-854 limits assumed): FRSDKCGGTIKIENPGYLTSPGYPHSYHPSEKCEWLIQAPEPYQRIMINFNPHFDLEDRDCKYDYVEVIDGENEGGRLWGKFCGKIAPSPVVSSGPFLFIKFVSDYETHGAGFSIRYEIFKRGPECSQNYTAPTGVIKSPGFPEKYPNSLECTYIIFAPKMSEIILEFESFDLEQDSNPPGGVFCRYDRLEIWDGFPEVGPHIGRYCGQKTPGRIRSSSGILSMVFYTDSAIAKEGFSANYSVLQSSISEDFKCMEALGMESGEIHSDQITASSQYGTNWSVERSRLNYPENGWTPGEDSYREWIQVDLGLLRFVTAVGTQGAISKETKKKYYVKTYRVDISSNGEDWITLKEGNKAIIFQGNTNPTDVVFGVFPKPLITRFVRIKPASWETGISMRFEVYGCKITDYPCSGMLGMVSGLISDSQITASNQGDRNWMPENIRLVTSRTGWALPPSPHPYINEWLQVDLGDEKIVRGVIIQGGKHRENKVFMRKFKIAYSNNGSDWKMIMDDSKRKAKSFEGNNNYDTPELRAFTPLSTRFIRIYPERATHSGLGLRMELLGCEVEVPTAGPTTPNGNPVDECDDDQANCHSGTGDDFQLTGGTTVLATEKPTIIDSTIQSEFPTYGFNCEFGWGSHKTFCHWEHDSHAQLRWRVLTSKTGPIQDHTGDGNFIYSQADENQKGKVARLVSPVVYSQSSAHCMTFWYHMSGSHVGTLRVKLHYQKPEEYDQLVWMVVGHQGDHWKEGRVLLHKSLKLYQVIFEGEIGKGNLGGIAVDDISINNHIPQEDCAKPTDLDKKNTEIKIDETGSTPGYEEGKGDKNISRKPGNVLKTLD
The experiment can be described thus: biochemical. The experiment is classed as binding. The note with it: for IC50: VEGF165/NRP-1 binding inhibition. The protocol: Selected compounds were tested in vitro by measuring the inhibition binding of VEGF165 to NRP-1. This assay allows the determination of percentage inhibition of the tested compound at a predetermined concentration. Determination of the Inhibitory Activity of the Tested Compounds. The evaluation of the inhibitory effect of peptidomimetics was performed using an enzymatic method denoting the spectrophotometric displacement of the VEGF165 ligand from the specific receptor by the evaluated compound. The studies were performed using polystyrene 96-well plates (Maxisorb, Nunc.). The Procedure for Determining the Inhibition of VEGF165/NRP-1. To evaluate the biological inhibitory activity of selected molecules in each well of flat bottom polystyrene plate of 96-wells (Maxisorb, Nunc,) a 100 μl of a solution containing 2 μg/ml of anti-Fc IgG (Sigma-Aldrich) dissolved in a phosphate buffer PBS (PBS, Sigma) was placed. The plate was allowed to stand overnight at 4° C. The next day, wells were washed three times with 100 μl PBS, and then saturated with 2% bovine serum albumin (BSA, Sigma) in PBS in order to eliminate non-specific interactions. After 2 hours of incubation at 37° C. the following solutions were added portionwise: 50 μl of purified recombinant rat NRP1-Fc (R&D Systems, Abingdon, UK) in a solution of 20 ng/well protein dissolved in PBS-BSA 0.1% tween-80 0.005% (PBT), 50 μl of compound solution in PBT in an appropriate concentration […] The total volume of added solution was 150 μl. After an overnight incubation at 4° C., the wells were washed with PBT and treated with streptavidin-HRP polymer (horseradish peroxidase, Sigma). The plate was incubated for 1 hour at room temperature. […] After 2 hours, the absorbance was measured at wavelength of 415 nm with respect to 470 nm. […] In the control wells the tested compound was absent, but the respective concentration of DMSO was maintained. The heptapeptide A7R (ATWLPPR (SEQ ID NO:1)) was used as a positive control on every 96-well plate.

Positions of bridges follow the written chain, without caps; N, C: chain ends. Residues, ends and D or L forms follow the SMILES beside them. Chains are numbered I, II in the order given. No end group written: not given here.

For orientation: IC50 means the concentration at which inhibition is half-maximal.

Regarding `N=C(N)NCCCC(NC(=O)C1CCC(=O)NC(CCCCN)C(=O)N2CCCC2C(=O)NC(C(=O)NC(CCCNC(=N)N)C(=O)O)CCC(=O)NC(CCCCN)C(=O)N2CCCC2C(=O)N1)C(=O)O` (stereo not drawn) [(c[Lys-Pro-Glu]-Arg-OH)2] (I: KPER-OH / II: KPER-OH; amide I:3-II:N, I:N-II:3; configuration not given here), the IC50 worked out at 460 nM.
On the same count and under the same terms, as for `N=C(N)NCCCC(NC(=O)C1CCC(=O)NCCCCC(N)C(=O)N2CCCC2C(=O)N1)C(=O)O` (stereo not drawn) [H-c[Lys-Pro-Glu]-Arg-OH] (H-KPER-OH; lactam 1-3; configuration not given here), the figure is 180 nM.
On to “ATWLPPR [A7R, ATWLPPR, reference compound]”, for which, where the note is “reduction of concentrations of 10-0.3 μM”, the “decrease in inhibition with decreasing concentration” value came out at 5 fold.

Values taken from patent US10800814B2, “Cyclic peptidomimetics, compositions containing them and their use in the treatment of diseases associated with angiogenesis” (priority 2015, dated 2020).
